# Measurements: US20020188026A1, “Methods of sterilizing with dipercarboxylic acids” (Lynntech, Inc., priority 2000, published 2002)
# Where “and” joins values, the source holds several entries; their conditions need not be identical. Equal entries are not always repeated.
# Experiments:
# [1] = concentrated peracid solution; cited from earlier work
# Staphylococcus aureus = experiment: Zone of inhibition test; type: cell-based; conditions: S. aureus, 20 μL on 6 mm disc, duplicate experiments
# Experimental: (§1) Zone of inhibition tests are qualitative screens for the inhibitory effect of the compound being tested. Clear zones created by a compound on a bacterial lawn indicates bacteriostatic ability and possible bactericidal capability and the size of the zone of inhibition is a semi-qualitative measure of the strength of the compound. The procedure involved creating lawns of bacteria by spreading 100 μL of broth culture evenly on nutrient agar plates. The bacteria were drawn from broth cultures that had recently reached maximum density. The organisms were Staphylococcus aureus, Psuedomonas aeruginosa, and Escherichia coli. Sterile, 6 mm, white paper discs were placed in the middle of each bacterial lawn. 20 μL of treatment were dispensed onto the surface of each disc. The treatments were: 1.0% and 0.033% diperglutaric acid, 1.0% glutaric acid in water. Each treatment was performed in duplicate for each organism. The plates were incubated at 37° C. for 18-24 hours. All zones were then measured in millimeters across the diameter of the zone of inhibition.
# Psuedomonas aeruginosa = experiment: Zone of inhibition test; type: cell-based; conditions: P. aeruginosa, 20 μL on 6 mm disc, duplicate experiments
# Experimental: as §1
# Escherichia coli = experiment: Zone of inhibition test; type: cell-based; conditions: E. coli, 20 μL on 6 mm disc, duplicate experiments
# Experimental: as §1
# S. aureus = experiment: Biopsy punch enumeration; type: cell-based; conditions: 1% treatment
# Experimental: (§2) Biopsy punch enumeration is an extension of the zone of inhibition test, which involves enumerating organisms on the surface or within a removed core (punch). This test provides a quantitative analysis of the viable organisms remaining after treatment. This procedure was carried out exactly the same as the zone of inhibition testing. After incubation, however, the disc was removed from the plate and a 6-mm core was taken with a sterile, disposable biopsy punch precisely in the location where the disc had been removed. The same three organisms were used and the following treatments were sampled in duplicate: 1.0% diperglutaric acid and 1.0% glutaric acid in water. The core of each plate was aseptically placed in a microcentrifuge tube with 1 ml of sterile 0.85% saline solution and placed on a vortex for 5 minutes. These samples were diluted and plated in duplicate on nutrient agar and allowed to incubate at 37° C. for 18-24 hours for enumeration.
# E. coli = experiment: Biopsy punch enumeration; type: cell-based; conditions: 1% treatment
# Experimental: as §2
# P. aeruginosa = experiment: Biopsy punch enumeration; type: cell-based; conditions: 1% treatment
# Experimental: as §2
# Bacillus subtilis spores = experiment: Sporicidal testing, spores heat fixed to glass slides; type: cell-based; conditions: for Log10 post-disinfection count (cfu/coupon): pre-disinfection 6.69
# Experimental: Additional spore testing experiments were done with diperglutaric acid. In this example, the diperglutaric acid was dissolved in a 90% water and 10% ethanol solution and used to kill Bacillus subtilis spores. […] Sporicidal capabilities of diperglutaric acid were tested at various concentrations. These procedures called for a 30-minute treatment of Bacillus subtilis spores heat fixed to glass slides. Glass slides were cut in half lengthwise. A suspension of spores, obtained from Steris Corporation of Mentor, Ohio (order #Na026) in 10% bovine serum albumin (as a simulated organic load) was prepared at a concentration of 1.2×10^8 spores per mL. 100 μL of this suspension was heat-fixed to each glass slide. These slides were immersed in the following dilutions of the diperglutaric acid: 2%, 1%, 0.3%, 0.1%, and 0.03%.
# Control slides were treated in glutaric acid: 2% and 1% in a 10% ethanol/water solution. All treatment concentrations were tested in duplicate. The spore coupons were immersed in 30 ml of test solution for 30 minutes. Following the treatment, the slides were rinsed in sterile water to remove residual acid. Each slide was then placed in a sterile 15-ml test tube containing 2 ml of sterile water. These tubes were sonicated for one hour to resuspend all spores. The sonicated slides were removed from the test tubes. The remaining solutions were serially diluted, plated in duplicate on nutrient agar and incubated for 18-24 hours at 37° C.
# The control values (pre-disinfection counts) were obtained from spore carriers immersed in sterile distilled water for 30 minutes prior to rinsing, recovery, and enumeration. The average log10 recovery from these controls was log106.69 per carrier. This compares favorably with the initial number of spores added, which was log107.08. The number of viable spores recovered was 40% of the number initially applied. […] Losses of 90% or less are generally considered acceptable in this type of experiment. […] A log reduction of less than log100.5cfu/carrier was achieved. Thus, the unreacted parent carboxylic acid has little effect on spores. […] Even at a concentration of 0.33%, the diperglutaric acid's effect on spores was similar to that of 2% glutaraldehyde.
# [2] = Crude estimate of solubility in water; type: physicochemical; conditions: crude experiment, estimated
# Excerpt: A crude experiment was done to first estimate the solubility in water of diperglutaric acid (C5), dipersuberic acid (C8), and dipersebacic acid (C10) prepared in accordance with Example 1. It was estimated that the limit of solubility of these peracids in water was 10%, 0.8%, and 0.1% wt/v for diperglutaric, dipersuberic, and dipersebacic, respectively.
# [3] = 2.0% freshly prepared glutaraldehyde preparation
compound,measurement,setting,value
O=C(CCCCC(=O)OO)OO [diperadipic acid],solubility for peracid concentrate solution,[1],not soluble enough to prepare an adequate peracid concentrate solution
"O=C(O)CCCC(=O)O [Glutaric acid, reference compound]",Diameter of Zones of Inhibition,Staphylococcus aureus; 1% in water,No zone
same,Diameter of Zones of Inhibition,Psuedomonas aeruginosa; 1% in water,No zone
same,Diameter of Zones of Inhibition,Escherichia coli; 1% in water,No zone
same,Log10 reduction (cfu/6 mm diameter sample),S. aureus,0.63 cfu/6 mm diameter sample
same,Log10 postdisinfection count (cfu/6 mm diameter sample),S. aureus; predisinfection 8.11,7.48 cfu/6 mm diameter sample
same,Log10 postdisinfection count (cfu/6 mm diameter sample),E. coli; predisinfection 7.44,6.75 cfu/6 mm diameter sample
same,Log10 reduction (cfu/6 mm diameter sample),P. aeruginosa,0.00 cfu/6 mm diameter sample
same,Log10 postdisinfection count (cfu/6 mm diameter sample),P. aeruginosa; predisinfection 7.53,7.57 cfu/6 mm diameter sample
same,Average log10 postdisinfection count (cfu/coupon),"Bacillus subtilis spores; 1.0% in 10% EtOH, 30 minutes",6.23 cfu/coupon
same,Average log10 reduction (cfu/coupon),"Bacillus subtilis spores; 1.0% in 10% EtOH, 30 minutes",0.46 cfu/coupon
same,Log10 post-disinfection count (cfu/coupon),"Bacillus subtilis spores; 1.0% in 10% EtOH, 30 minutes",6.26 cfu/coupon and 6.19 cfu/coupon
same,Average log10 postdisinfection count (cfu/coupon),"Bacillus subtilis spores; 2.0% in 10% EtOH, 30 minutes",6.26 cfu/coupon
same,Average log10 reduction (cfu/coupon),"Bacillus subtilis spores; 2.0% in 10% EtOH, 30 minutes",0.43 cfu/coupon
same,Log10 post-disinfection count (cfu/coupon),"Bacillus subtilis spores; 2.0% in 10% EtOH, 30 minutes",6.27 cfu/coupon and 6.24 cfu/coupon
same,sporicidal effectiveness,Bacillus subtilis spores; concentrations of 1% and 2% for 30 minutes,not an effective sporicidal agent
"O=C(CCC(=O)OO)OO [dipersuccinic acid, reference compound]",stability of peracid concentrate,[1],did not form stable peracid concentrates
O=C(CCCCCCCCC(=O)OO)OO [dipersebacic acid],limit of solubility in water,[2],0.1 % wt/v
"O=CCCCC=O [Glutaraldehyde, reference compound]",Average log10 postdisinfection count (cfu/coupon),Bacillus subtilis spores; [3],3.10 cfu/coupon
same,Average log10 reduction (cfu/coupon),Bacillus subtilis spores; [3],3.05 cfu/coupon
"O=C(CCCC(=O)OO)OO [Diperglutaric acid, diperglutaric acid]",Diameter of Zones of Inhibition,Staphylococcus aureus; 0.033%,10 mm and 9 mm
same,Diameter of Zones of Inhibition,Staphylococcus aureus; 1% in water,"13 mm, 13 mm"
same,Diameter of Zones of Inhibition,Psuedomonas aeruginosa; 0.033%,10 mm and 11 mm
same,Diameter of Zones of Inhibition,Psuedomonas aeruginosa; 1% in water,"12 mm, 12 mm"
same,Diameter of Zones of Inhibition,Escherichia coli; 0.033%,"10 mm, 10 mm"
same,Diameter of Zones of Inhibition,Escherichia coli; 1% in water,12 mm and 13 mm
same,limit of solubility in water,[2],10 % wt/v
same,Log10 reduction (cfu/6 mm diameter sample),S. aureus,8.11 cfu/6 mm diameter sample
same,Log10 reduction (cfu/6 mm diameter sample),E. coli,7.44 log10
same,Log10 reduction (cfu/6 mm diameter sample),P. aeruginosa,7.53 cfu/6 mm diameter sample
same,Average log10 postdisinfection count (cfu/coupon),"Bacillus subtilis spores; 0.033% in 10% EtOH, 30 minutes",4.99 cfu/coupon
same,Average log10 reduction (cfu/coupon),"Bacillus subtilis spores; 0.033% in 10% EtOH, 30 minutes",1.70 cfu/coupon
same,Average log10 postdisinfection count (cfu/coupon),"Bacillus subtilis spores; 0.1% in 10% EtOH, 30 minutes",4.72 cfu/coupon
same,Average log10 reduction (cfu/coupon),"Bacillus subtilis spores; 0.1% in 10% EtOH, 30 minutes",1.97 cfu/coupon
same,Average log10 postdisinfection count (cfu/coupon),"Bacillus subtilis spores; 0.33% in 10% EtOH, 30 minutes",3.57 cfu/coupon
same,Average log10 reduction (cfu/coupon),"Bacillus subtilis spores; 0.33% in 10% EtOH, 30 minutes",3.12 cfu/coupon
same,Log10 post-disinfection count (cfu/coupon),"Bacillus subtilis spores; 0.33% in 10% EtOH, 30 minutes",3.62 cfu/coupon and 3.52 cfu/coupon
same,viable spores recovered from carriers,Bacillus subtilis spores; 1% and 2% for 30 minutes,no viable spores were recovered
same,Average log10 postdisinfection count (cfu/coupon),"Bacillus subtilis spores; 1.0% in 10% EtOH, 30 minutes",<1.0 cfu/coupon
same,Average log10 reduction (cfu/coupon),"Bacillus subtilis spores; 1.0% in 10% EtOH, 30 minutes",6.69 cfu/coupon
same,Average log10 postdisinfection count (cfu/coupon),"Bacillus subtilis spores; 2.0% in 10% EtOH, 30 minutes",<1.0 cfu/coupon
same,Average log10 reduction (cfu/coupon),"Bacillus subtilis spores; 2.0% in 10% EtOH, 30 minutes",6.69 cfu/coupon
O=C(CCCCCCC(=O)OO)OO [dipersuberic acid],limit of solubility in water,[2],0.8 % wt/v
